Values quoted from earlier work as cited in patent US20040259899A1, “Combination therapy for constipation” (priority 2003, published 2004).

Details: white crystalline powder as provided (Mallinckrodt Pharmaceuticals)

In the case of `C[N@+]1(CC2CC2)CC[C@]23c4c5ccc(O)c4O[C@H]2C(=O)CC[C@@]3(O)[C@H]1C5` [Methylnaltrexone, N-cyclopropylmethylnoroxy-morphine-methobromide], the solubility in water is listed as “freely soluble”.
